Source: BindingDB's records for doi:10.1021/jm00126a020 (Sankyo, 1989)

What was measured:
Thromboxane-A synthase = target: T1, Thromboxane-A synthase (Homo sapiens, UniProt P24557); assay: ChEBML_209951
T1 sequence (P24557 whole entry): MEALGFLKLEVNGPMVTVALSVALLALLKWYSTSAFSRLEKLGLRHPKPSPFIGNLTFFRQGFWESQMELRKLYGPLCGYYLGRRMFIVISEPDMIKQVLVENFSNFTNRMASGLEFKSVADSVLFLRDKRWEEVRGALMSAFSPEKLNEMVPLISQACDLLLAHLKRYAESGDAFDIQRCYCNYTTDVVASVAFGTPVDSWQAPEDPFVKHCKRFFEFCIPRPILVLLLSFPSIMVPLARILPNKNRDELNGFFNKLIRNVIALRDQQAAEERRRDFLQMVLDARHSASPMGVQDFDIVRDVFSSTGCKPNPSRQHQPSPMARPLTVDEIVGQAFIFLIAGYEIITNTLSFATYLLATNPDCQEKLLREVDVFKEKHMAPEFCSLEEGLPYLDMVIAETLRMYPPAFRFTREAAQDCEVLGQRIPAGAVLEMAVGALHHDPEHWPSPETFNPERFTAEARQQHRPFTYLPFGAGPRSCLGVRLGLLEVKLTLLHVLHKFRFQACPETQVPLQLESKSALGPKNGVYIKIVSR
From the text: Inhibition of thromboxane A2 synthetase

[1] = target: Thromboxane-A synthase (Oryctolagus cuniculus); assay: Inhibition of platelet microsomal thromboxane A2 synthetase in rabbits

| Structure (SMILES) | IC50 (Thromboxane-A synthase) [nM] | IC50 [1] [nM] |
| --- | --- | --- |
| CC(C)(C)C(c1cc2c(s1)CCC(C(=O)O)=C2)n1ccnc1 (stereo not drawn) | > 10000 | – |
| O=C(O)C1=Cc2cc(C(c3ccccc3)n3ccnc3)sc2CC1 (stereo not drawn) | 114 | – |
| O=C(O)C1CCc2sc(CCn3ccnc3)cc2C1 (stereo not drawn) | 1020 | – |
| O=C(O)c1cc2c(s1)CC(Cn1ccnc1)CC2 (stereo not drawn) | 2680 | – |
| O=C(O)C1=Cc2sc(CCn3ccnc3)cc2CC1 | > 10000 | – |
| O=C(O)C1=Cc2cc(C(C3CCCCC3)n3ccnc3)sc2CC1 (stereo not drawn) | > 10000 | – |
| O=C(O)c1cc2c(s1)CCC(Cn1ccnc1)C2 (stereo not drawn) | 114 | – |
| O=C(O)C1CCc2cc(CCn3ccnc3)sc2C1 (stereo not drawn) | 1850 | – |

Further molecules by falling IC50 (Thromboxane-A synthase), results first:

| IC50 (Thromboxane-A synthase) [nM] | IC50 [1] [nM] | Structure (SMILES) |
| --- | --- | --- |
| 100 | – | O=C(O)C1=Cc2cc(CCn3ccnc3)sc2CC1 |
| 93 | – | O=C(O)C1=Cc2cc(Cn3ccnc3)sc2CC1 |
| 86 | – | O=C(O)C1CCc2sc(Cn3ccnc3)cc2C1 (stereo not drawn) |
| 13 | 13 | O=C(O)C1=Cc2sc(Cn3ccnc3)cc2CC1 [2-Imidazol-1-ylmethyl-4,5-dihydro-benzo[b]thiophene-6-carboxylic acid] |
